From US8765730B2 (Hoffmann-La Roche Inc, priority 2010, dated 2014) come the findings set out here.

SMILES strings stand for the structures. Like-named read-outs stand apart in the source and are kept apart here.

The target of the test is T1, human GPBAR1 receptor (Homo sapiens, UniProt Q8TDU6).
T1 construct: expressed in transfected cells
T1 sequence (Q8TDU6 1-330): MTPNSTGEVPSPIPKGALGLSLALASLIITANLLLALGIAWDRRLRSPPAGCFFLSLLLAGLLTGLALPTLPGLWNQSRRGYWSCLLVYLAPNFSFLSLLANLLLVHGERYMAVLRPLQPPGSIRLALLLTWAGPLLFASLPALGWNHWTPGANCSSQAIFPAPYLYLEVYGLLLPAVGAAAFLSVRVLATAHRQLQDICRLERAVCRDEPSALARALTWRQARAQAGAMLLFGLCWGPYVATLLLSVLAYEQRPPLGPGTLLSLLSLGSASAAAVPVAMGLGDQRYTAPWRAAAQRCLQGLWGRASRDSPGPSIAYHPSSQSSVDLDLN
The test can be described thus: functional cAMP assay in CHO-dhfr(minus) cells expressing human GPBAR1 receptors. It counts as cell-based. As to conditions: 30 min at 30° C. Put shortly:
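Agonist cAMP read-out: stable GPBAR1 CHO-dhfr− clone, 30 min compound exposure at 30° C following 30 min IBMX (1 mM) preincubation in Krebs Ringer bicarbonate. Time-resolved energy-transfer detection gives EC50; parental CHO cells serve as counter-screen.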
(In general: cAMP levels reflect the balance of adenylyl cyclase and phosphodiesterase activity.)

Setting [1] is: human EC50, functional cAMP assay.
[2] abbreviates: functional cAMP assay, read-out: human EC50.

On to `Cc1ccccc1C(C/C(=N\O)c1cncc(Br)c1)c1cccc(Br)c1` (stereo not shown) [Example 123, (E)-3-(3-Bromo-phenyl)-1-(5-bromo-pyridin-3-yl)-3-o-tolyl-propan-1-one oxime], for which the EC50 under setting [1] was determined as 4540 nM.
`Cc1cnc(F)c(/C(CC(c2ccc(Br)cc2)c2ccccc2C)=N/O)c1` (stereo not shown) [Example 128, (E)-3-(4-Bromo-phenyl)-1-(2-fluoro-5-methyl-pyridin-3-yl)-3-o-tolyl-propan-1-one oxime] had an EC50 under setting [1] of 650 nM.
Under setting [1], `Cc1cc(/C(CC(c2ccc(-c3ccc(C(=O)O)c(F)c3)cc2)c2ccccc2C)=N/O)ccn1` (stereo not shown) [Example 131, 3-Fluoro-4′-[3-[(E)-hydroxyimino]-3-(2-methyl-pyridin-4-yl)-1-o-tolyl-propyl]-biphenyl-4-carboxylic acid] displayed an EC50 of 14 nM.
Under setting [1], `Cc1cc(/C(CC(c2ccc(Br)cc2)c2ccccc2C(F)(F)F)=N/O)ccn1` (stereo not shown) [Example 132, (E)-3-(4-Bromo-phenyl)-1-(2-methyl-pyridin-4-yl)-3-(2-trifluoromethyl-phenyl)-propan-1-one oxime] gave an EC50 of 46 nM.
Take `Cc1cc(/C(CC(c2ccc(-c3ccc(S(C)(=O)=O)cc3)cc2)c2ccccc2C(F)(F)F)=N/O)ccn1` (stereo not shown) [Example 133, (E)-3-(4′-Methanesulfonyl-biphenyl-4-yl)-1-(2-methyl-pyridin-4-yl)-3-(2-trifluoromethyl-phenyl)-propan-1-one oxime]: under setting [1], the EC50 was determined as 114 nM.
Still for that read-out and setting: the result for `Cc1cc(/C(CC(c2ccc(-c3ccc(C(=O)O)cc3)cc2)c2ccccc2C(F)(F)F)=N/O)ccn1` (stereo not shown) [Example 134, 4′-[3-[(E)-Hydroxyimino]-3-(2-methyl-pyridin-4-yl)-1-(2-trifluoromethyl-phenyl)-propyl]-biphenyl-4-carboxylic acid] reads 20 nM; that for `Cc1cc(/C(CC(c2ccc(-c3ccc(C(=O)O)c(F)c3)cc2)c2ccccc2C(F)(F)F)=N/O)ccn1` (stereo not shown) [Example 135, 3-Fluoro-4′-[3-[(E)-hydroxyimino]-3-(2-methyl-pyridin-4-yl)-1-(2-trifluoromethyl-phenyl)-propyl]-biphenyl-4-carboxylic acid], 29 nM.
As for `Cc1ccccc1C(C/C(=N\O)c1ccncc1)c1ccc(N2CCN(S(C)(=O)=O)CC2)cc1` (stereo not shown) [Example 136, (E)-3-[4-(4-Methanesulfonyl-piperazin-1-yl)-phenyl]-1-pyridin-4-yl-3-o-tolyl-propan-1-one oxime], under setting [1], the response was half-maximal at 24 nM (EC50).
In turn, `Cc1cc(/C(CC(c2ccc(N3CCN(S(C)(=O)=O)CC3)cc2)c2ccccc2C(F)(F)F)=N/O)ccn1` (stereo not shown) [Example 137, (E)-3-[4-(4-Methanesulfonyl-piperazin-1-yl)-phenyl]-1-(2-methyl-pyridin-4-yl)-3-(2-trifluoromethyl-phenyl)-propan-1-one oxime] gave an EC50 under setting [1] of 38 nM.
In turn, `Cc1cc(/C(CC(c2ccc(Br)cc2)c2ccc(Cl)cc2C)=N/O)ccn1` (stereo not shown) [Example 138, (E)-3-(4-Bromophenyl)-3-(4-chloro-2-methylphenyl)-1-(2-methylpyridin-4-yl)propan-1-one oxime] had an EC50 under setting [1] of 155 nM.
The compound `Cc1cc(/C(CC(c2ccc(-c3ccc(C(=O)O)cc3)cc2)c2ccc(Cl)cc2C)=N/O)ccn1` (stereo not shown) [Example 139, (E)-4′-(1-(4-chloro-2-methylphenyl)-3-(hydroxyimino)-3-(2-methylpyridin-4-yl)propyl)biphenyl-4-carboxylic acid] registered a 50% effective concentration (EC50) under setting [1] of 17 nM.
The compound `Cc1cc(/C(CC(c2ccc(Br)cc2)c2ccc(F)cc2C)=N/O)ccn1` (stereo not shown) [Example 140, (E)-3-(4-Bromophenyl)-3-(4-fluoro-2-methylphenyl)-1-(2-methylpyridin-4-yl)propan-1-one oxime] displayed an EC50 under setting [1] of 12 nM.
In the case of `Cc1cc(/C(CC(c2ccc(-c3ccc(C(=O)O)cc3)cc2)c2ccc(F)cc2C)=N/O)ccn1` (stereo not shown) [Example 141, (E)-4′-(1-(4-Fluoro-2-methylphenyl)-3-(hydroxyimino)-3-(2-methylpyridin-4-yl)propyl)biphenyl-4-carboxylic acid], the half-maximal effective concentration (EC50) under setting [1] was found to be 8 nM.
On the same count and under the same terms, to `Cc1cc(/C(C[C@H](c2ccc(-c3cncnc3)cc2)c2ccccc2C)=N/O)ccn1` [Example 143, (E,R)-1-(2-Methyl-pyridin-4-yl)-3-(4-pyrimidin-5-yl-phenyl)-3-o-tolyl-propan-1-one oxime] belongs 1 nM; to `Cc1cc(/C(C[C@H](c2ccc(N3CCN(S(C)(=O)=O)CC3)cc2)c2ccccc2C)=N/O)ccn1` [Example 144, (E,R)-1-(2-Methylpyridin-4-yl)-3-(4-(4-(methylsulfonyl)piperazin-1-yl)phenyl)-3-o-tolylpropan-1-one oxime], 17 nM; to `Cc1cc(/C(C[C@H](c2ccc(N3CCC(O)CC3)cc2)c2ccccc2C)=N/O)ccn1` [Example 145, (E,R)-3-(4-(4-Hydroxypiperidin-1-yl)phenyl)-1-(2-methylpyridin-4-yl)-3-o-tolylpropan-1-one oxime], 1 nM.
Same read-out and setting: the result for `Cc1ccccc1[C@H](C/C(=N\O)c1cc(Cl)nc(Cl)c1)c1ccc(-c2ccc(C(=O)O)cc2)cc1` [Example 146, (E,R)-4′-(3-(2,6-Dichloropyridin-4-yl)-3-(hydroxyimino)-1-o-tolylpropyl)biphenyl-4-carboxylic acid] reads 164 nM; that for `Cc1cc(/C(CC(c2ccc(Br)cc2)c2ccc(Cl)cc2F)=N/O)ccn1` (stereo not shown) [Example 147, (E)-3-(4-Bromo-phenyl)-3-(4-chloro-2-fluoro-phenyl)-1-(2-methyl-pyridin-4-yl)-propan-1-one oxime], 467 nM; that for `Cc1ccccc1C(C/C(=N\O)c1cc(C)c(O)c(C)c1)c1ccc(Br)cc1` (stereo not shown) [Example 152, (E)-3-(4-Bromo-phenyl)-1-(4-hydroxy-3,5-dimethyl-phenyl)-3-o-tolyl-propan-1-one oxime], 5120 nM.
Still for that read-out and setting: to `CC(/C(=N\O)c1ccncc1)C(c1ccccc1)c1ccccc1` (stereo not shown) [Example 153, (E)-2-Methyl-3,3-diphenyl-1-pyridin-4-yl-propan-1-one oxime] belongs 151 nM.
`O/N=C(\CC(O)(c1ccccc1)c1ccccc1)c1ccncc1` [Example 154, (E)-3-Hydroxy-3,3-diphenyl-1-pyridin-4-yl-propan-1-one oxime]: under setting [2], the EC50 was found to be 549 nM.
On to `O/N=C(/CC(O)(c1ccccc1)c1ccccc1)c1ccncc1` [Example 155, (Z)-3-Hydroxy-3,3-diphenyl-1-pyridin-4-yl-propan-1-one oxime], for which the EC50 under setting [2] came to 8620 nM.
Under setting [1], `Cc1ccccc1C(C/C(=N\O)c1cnccn1)c1ccc(Br)cc1` (stereo not shown) [Example 156, (E)-3-(4-Bromo-phenyl)-1-pyrazin-2-yl-3-o-tolyl-propan-1-one oxime] had an EC50 of 6140 nM.
`Cc1ccccc1C(C/C(=N\O)c1ccnc2cc(Cl)ccc12)c1ccc(Br)cc1` (stereo not shown) [Example 157, (E)-3-(4-Bromo-phenyl)-1-(7-chloro-quinolin-4-yl)-3-o-tolyl-propan-1-one oxime] came in with an EC50 under setting [1] of 3640 nM.
Under setting [1], `COc1ccc(C2(C/C(=N\O)c3ccnc(C)c3)CCCCC2)cc1` [Example 158, (E)-2-[1-(4-Methoxy-phenyl)-cyclohexyl]-1-(2-methyl-pyridin-4-yl)-ethanone oxime] had an EC50 of 1030 nM.
Still for that read-out and setting: the result for `COc1ccc(C2(C/C(=N/O)c3ccnc(C)c3)CCCCC2)cc1` [Example 159, (Z)-2-[1-(4-Methoxy-phenyl)-cyclohexyl]-1-(2-methyl-pyridin-4-yl)-ethanone oxime] reads 5560 nM.
Turning to `O=c1ccc(/C(CC(c2ccccc2)c2ccccc2)=N/O)c[nH]1` [Example 160, 5-{1-[(E)-Hydroxyimino]-3,3-diphenyl-propyl}-1H-pyridin-2-one], the EC50 under setting [1] came to 1310 nM.
Same read-out and setting: the result for `Cn1cc(/C(CC(c2ccccc2)c2ccccc2)=N/O)ccc1=O` [Example 161, 5-{1-[(E)-Hydroxyimino]-3,3-diphenyl-propyl}-1-methyl-1H-pyridin-2-one] reads 119 nM.
Regarding `CCn1cc(/C(CC(c2ccc(Br)cc2)c2ccccc2C)=N/O)ccc1=O` (stereo not shown) [Example 164, 5-{3-(4-Bromo-phenyl)-1-[(E)-hydroxyimino]-3-o-tolyl-propyl}-1-ethyl-1H-pyridin-2-one], the EC50 under setting [1] was found to be 4 nM.
For `CCn1cc(/C(CC(c2ccc(Br)cc2)c2ccccc2C)=N\O)ccc1=O` (stereo not shown) [Example 165, 5-{3-(4-Bromo-phenyl)-1-[(Z)-hydroxyimino]-3-o-tolyl-propyl}-1-ethyl-1H-pyridin-2-one], under setting [1], the midpoint of the response, the EC50, lay at 550 nM.
In turn, `CC(C)CC(C/C(=N\O)c1ccc(=O)n(C)c1)c1ccc(Br)cc1` (stereo not shown) [Example 170, 5-{3-(4-Bromo-phenyl)-1-[(E)-hydroxyimino]-5-methyl-hexyl}-1-methyl-1H-pyridin-2-one] yielded an EC50 under setting [1] of 453 nM.
For `CC(C)CC(C/C(=N/O)c1ccc(=O)n(C)c1)c1ccc(Br)cc1` (stereo not shown) [Example 171, 5-{3-(4-Bromo-phenyl)-1-[(Z)-hydroxyimino]-5-methyl-hexyl}-1-methyl-1H-pyridin-2-one], under setting [1], the midpoint of the response, the EC50, lay at 4000 nM.
Compound `Cn1cc(/C(CC(c2ccc(Br)cc2)C2CCCC2)=N/O)ccc1=O` (stereo not shown) [Example 172, 5-{3-(4-Bromo-phenyl)-3-cyclopentyl-1-[(E)-hydroxyimino]-propyl}-1-methyl-1H-pyridin-2-one] returned a concentration for a half-maximal effect (EC50) under setting [1] of 56 nM.
Turning to `Cn1cc(/C(CC(c2ccc(Br)cc2)C2CCCC2)=N\O)ccc1=O` (stereo not shown) [Example 173, 5-{3-(4-Bromo-phenyl)-3-cyclopentyl-1-[(Z)-hydroxyimino]-propyl}-1-methyl-1H-pyridin-2-one], the EC50 under setting [1] worked out at 1930 nM.

By EC50 is commonly meant the concentration needed to bring the measured effect to its halfway point.
